Results as given in PubChem BioAssay (NCI).
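Where inhibition never reached the appropriate level, the endpoint shown equals the highest concentration tested. Otherwise, values were interpolated linearly from a five-concentration, 48-hour dose response in 96-well plates. TGI denotes the concentration required for complete inhibition of growth.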

Experiments:
Experiment in all cases: DTP human tumour cell line panel, 48 h
[1] = system: NCI-H460 lung
[2] = system: HOP-62 NSCLC
[3] = system: LOX IMVI melanoma
[4] = system: SF-268 CNS
[5] = system: SNB-75 CNS
[6] = system: OVCAR-3 ovarian
[7] = system: UO-31 renal
[8] = system: M14 melanoma
[9] = system: SW-620 colon
[10] = system: RXF 393 renal
[11] = system: A549 NSCLC
[12] = system: HT29 colon
[13] = system: MDA-MB-435
[14] = system: SNB-19 CNS
[15] = system: MDA-MB-231 breast
[16] = system: OVCAR-5 ovarian
[17] = system: KM12 colon
[18] = system: RPMI-8226 leukemia
[19] = system: SF-295 CNS
[20] = system: NCI-H522 lung
[21] = system: DU-145 prostate
[22] = system: NCI/ADR-RES ovarian
[23] = system: EKVX NSCLC
[24] = system: TK-10 renal
[25] = system: 786-0 renal
[26] = system: CAKI-1 renal
[27] = system: MOLT-4 leukemia
[28] = system: NCI-H226 lung
[29] = system: SK-MEL-2 melanoma
[30] = system: SR leukemia
[31] = system: IGROV1 ovarian
[32] = system: HL-60(TB) leukemia
[33] = system: U251 CNS
[34] = system: SK-MEL-28 melanoma
[35] = system: CCRF-CEM leukemia
[36] = system: OVCAR-4 ovarian
[37] = system: HCC-2998 colon
[38] = system: SK-OV-3 ovarian
[39] = system: BT-549 breast
[40] = system: HOP-92 NSCLC
[41] = system: SF-539 CNS
[42] = system: K-562 leukemia
[43] = system: HCT-15 colon
[44] = system: HS 578T breast
[45] = system: UACC-62 melanoma
[46] = system: MALME-3M melanoma
[47] = system: HCT-116 colon
[48] = system: SK-MEL-5 melanoma
[49] = system: MDA-N
[50] = system: PC-3 prostate
[51] = system: COLO 205 colon
[52] = system: OVCAR-8 ovarian
[53] = system: NCI-H23 lung
[54] = system: ACHN renal
[55] = system: UACC-257 melanoma
[56] = system: SN12C renal
[57] = system: T-47D breast
[58] = system: A498 renal
[59] = system: MCF7 breast

Work on `CCOC(=O)C(C)(Cc1ccc(O)cn1)NC(=O)c1ccccc1` (stereo not drawn) yielded a TGI [1] greater than 100 µM, a TGI [2] greater than 100 µM and a TGI [3] greater than 100 µM. For the same compound, the TGI [4] was greater than 100 µM, the TGI [5] was greater than 100 µM and the TGI [6] was greater than 100 µM. The TGI [7] was greater than 100 µM, the TGI [8] was greater than 100 µM and the TGI [9] was greater than 100 µM. It also gave a TGI [10] greater than 100 µM, a TGI [11] greater than 100 µM and a TGI [12] greater than 100 µM. It also gave a TGI [13] greater than 100 µM, a TGI [14] greater than 100 µM and a TGI [15] greater than 100 µM. The TGI [16] was greater than 100 µM, the TGI [17] was greater than 100 µM and the TGI [18] was greater than 100 µM. For the same compound, the TGI [19] was greater than 100 µM, the TGI [20] was greater than 100 µM and the TGI [21] was greater than 100 µM. For the same compound, the TGI [22] was greater than 100 µM, the TGI [23] was greater than 100 µM and the TGI [24] was greater than 100 µM. The TGI [25] was greater than 100 µM, the TGI [26] was greater than 100 µM and the TGI [27] was greater than 100 µM. For the same compound, the TGI [28] was greater than 100 µM, the TGI [29] was greater than 100 µM and the TGI [30] was greater than 100 µM. It also gave a TGI [31] greater than 100 µM, a TGI [32] greater than 100 µM and a TGI [33] greater than 100 µM. The TGI [34] was greater than 100 µM, the TGI [35] was greater than 100 µM and the TGI [36] was greater than 100 µM. It also gave a TGI [37] greater than 100 µM, a TGI [38] greater than 100 µM and a TGI [39] greater than 100 µM. It also gave a TGI [40] greater than 100 µM, a TGI [41] greater than 100 µM and a TGI [42] greater than 100 µM. The TGI [43] was greater than 100 µM, the TGI [44] was greater than 100 µM and the TGI [45] was greater than 100 µM. It also gave a TGI [46] greater than 100 µM, a TGI [47] greater than 100 µM and a TGI [48] greater than 100 µM. The TGI [49] was greater than 100 µM, the TGI [50] was greater than 100 µM and the TGI [51] was greater than 100 µM. It also gave a TGI [52] greater than 100 µM, a TGI [53] greater than 100 µM and a TGI [54] greater than 100 µM. The TGI [55] was greater than 100 µM.
Compound `O=c1[nH]c(=S)[nH]c2c(C3OC(CO)C(O)C3O)nsc12` (stereo not drawn) has a TGI [1] greater than 100 µM, a TGI [56] greater than 100 µM and a TGI [2] greater than 100 µM. For the same compound, the TGI [3] was greater than 100 µM, the TGI [4] was greater than 100 µM and the TGI [5] was greater than 100 µM. The TGI [6] was greater than 100 µM, the TGI [57] was greater than 100 µM and the TGI [8] was greater than 100 µM. The TGI [9] was greater than 100 µM, the TGI [10] was greater than 100 µM and the TGI [11] was greater than 100 µM. For the same compound, the TGI [12] was greater than 100 µM, the TGI [13] was greater than 100 µM and the TGI [16] was greater than 100 µM. It also gave a TGI [19] greater than 100 µM, a TGI [21] greater than 100 µM and a TGI [22] greater than 100 µM. It also gave a TGI [23] greater than 100 µM, a TGI [24] greater than 100 µM and a TGI [26] greater than 100 µM. It also gave a TGI [27] greater than 100 µM, a TGI [28] greater than 100 µM and a TGI [58] greater than 100 µM. It also gave a TGI [29] greater than 100 µM, a TGI [31] greater than 100 µM and a TGI [32] greater than 100 µM. The TGI [33] was greater than 100 µM, the TGI [34] was greater than 100 µM and the TGI [35] was greater than 100 µM. The TGI [36] was greater than 100 µM, the TGI [37] was greater than 100 µM and the TGI [38] was greater than 100 µM. For the same compound, the TGI [39] was greater than 100 µM, the TGI [40] was greater than 100 µM and the TGI [59] was greater than 100 µM. It also gave a TGI [41] greater than 100 µM, a TGI [42] greater than 100 µM and a TGI [43] greater than 100 µM. It also gave a TGI [44] greater than 100 µM, a TGI [45] greater than 100 µM and a TGI [46] greater than 100 µM. It also gave a TGI [47] greater than 100 µM, a TGI [48] greater than 100 µM and a TGI [49] greater than 100 µM. For the same compound, the TGI [50] was greater than 100 µM, the TGI [51] was greater than 100 µM and the TGI [52] was greater than 100 µM. It also gave a TGI [55] greater than 100 µM.
For `CC(=O)Oc1ccc2cc(Oc3ccccc3)c(=O)oc2c1`, the TGI [1] was greater than 100 µM, the TGI [56] was greater than 100 µM and the TGI [2] was greater than 100 µM. For the same compound, the TGI [3] was greater than 100 µM, the TGI [4] was greater than 100 µM and the TGI [5] was greater than 100 µM. It also gave a TGI [6] greater than 100 µM, a TGI [57] greater than 100 µM and a TGI [7] greater than 100 µM. The TGI [8] was greater than 100 µM, the TGI [9] was greater than 100 µM and the TGI [10] was greater than 100 µM. It also gave a TGI [11] greater than 100 µM, a TGI [12] greater than 100 µM and a TGI [14] greater than 100 µM. The TGI [15] was greater than 100 µM, the TGI [16] was greater than 100 µM and the TGI [17] was greater than 100 µM. It also gave a TGI [18] greater than 100 µM, a TGI [19] greater than 100 µM and a TGI [20] of 70.7 µM. The TGI [21] was greater than 100 µM, the TGI [23] was greater than 100 µM and the TGI [24] was greater than 100 µM. It also gave a TGI [25] greater than 100 µM, a TGI [26] greater than 100 µM and a TGI [28] greater than 100 µM. It also gave a TGI [58] greater than 100 µM, a TGI [30] greater than 100 µM and a TGI [31] greater than 100 µM. The TGI [32] was greater than 100 µM, the TGI [33] was greater than 100 µM and the TGI [34] was greater than 100 µM. The TGI [36] was greater than 100 µM, the TGI [37] was greater than 100 µM and the TGI [39] was greater than 100 µM. It also gave a TGI [40] greater than 100 µM, a TGI [59] greater than 100 µM and a TGI [41] greater than 100 µM. For the same compound, the TGI [43] was greater than 100 µM, the TGI [44] was greater than 100 µM and the TGI [46] was greater than 100 µM. For the same compound, the TGI [47] was greater than 100 µM, the TGI [48] was greater than 100 µM and the TGI [49] was greater than 100 µM. For the same compound, the TGI [50] was greater than 100 µM, the TGI [52] was greater than 100 µM and the TGI [53] was greater than 100 µM. It also gave a TGI [54] greater than 100 µM and a TGI [55] greater than 100 µM.
With `O=C1c2ccccc2/C=C\C(c2ccccc2)=N/N1c1ccccc1Cl` the TGI [1] was greater than 100 µM, the TGI [56] was greater than 100 µM and the TGI [2] was 92.8 µM. It also gave a TGI [3] greater than 100 µM, a TGI [4] greater than 100 µM and a TGI [5] of 97.8 µM. For the same compound, the TGI [6] was greater than 100 µM, the TGI [7] was 98.8 µM and the TGI [8] was 51.2 µM. It also gave a TGI [9] greater than 100 µM, a TGI [10] of 47.7 µM and a TGI [11] of 60.5 µM. For the same compound, the TGI [12] was 37 µM, the TGI [13] was 16.8 µM and the TGI [14] was greater than 100 µM. The TGI [15] was 49.2 µM, the TGI [16] was greater than 100 µM and the TGI [17] was 64.4 µM. It also gave a TGI [18] of 80.5 µM, a TGI [19] greater than 100 µM and a TGI [20] of 35.8 µM. The TGI [21] was greater than 100 µM, the TGI [22] was 63.5 µM and the TGI [23] was greater than 100 µM. The TGI [24] was greater than 100 µM, the TGI [25] was greater than 100 µM and the TGI [26] was 54.5 µM. For the same compound, the TGI [27] was 77.1 µM, the TGI [28] was greater than 100 µM and the TGI [58] was 71.9 µM. It also gave a TGI [29] greater than 100 µM, a TGI [31] greater than 100 µM and a TGI [32] of 54.8 µM. The TGI [33] was 63.5 µM, the TGI [34] was greater than 100 µM and the TGI [35] was greater than 100 µM. It also gave a TGI [36] of 97.2 µM, a TGI [37] greater than 100 µM and a TGI [39] of 28 µM. The TGI [40] was 78.4 µM, the TGI [59] was 63.9 µM and the TGI [41] was greater than 100 µM. It also gave a TGI [42] greater than 100 µM, a TGI [43] greater than 100 µM and a TGI [44] greater than 100 µM. It also gave a TGI [46] of 71.4 µM, a TGI [47] greater than 100 µM and a TGI [48] of 26.3 µM. It also gave a TGI [49] of 14.7 µM, a TGI [50] of 28.6 µM and a TGI [52] greater than 100 µM. The TGI [53] was 93.6 µM, the TGI [54] was greater than 100 µM and the TGI [55] was 90.5 µM.
